B1: AtGTR4: Arabidopsis GTR protein, SEQ ID NO: 8 (protein, listed as Arabidopsis thaliana)
chain: MDNEKGTSSSDLTTRQRKPLGWKAMPYIIGNETLERLATFGLMANFMVYMVREYHMDQVQAVTLINTWSALTNFAPIIGAFISDSYTGKFNTIVFGSIAELLGMLVLTFTSLVPNLRPPPCTADQITGQCIPYSYSQLYVLLSGLFLLSVGTGGIRSCSVPFSLDQFDDSTEEGREGSRSFFSWYYTTHTIVQLVSMTLVLYVQNNISWGIGFAIPTVLNFFALLLLFVGTRYYVFVKPEGSVFSGVFKVLVAAYKKRKARFTSGIDYHQPLLETDLQSNKLVLTDQFRFLNKAVIVMNNDEAGNEEWRTCTVRQIEDIKSIISIIPIFASSIIGFLAMNQQQTFTVSQALKMDLQFPGTSYLIPPASITVISLLNIGIWLPFYETVLVRHIENITKQNGGISLLQKVGIGNIFSISTMLISGIVERKRRDLSLNGVKMSVFWLTPQQVLMGFYQVFTIVGLTEFFNKQVPINMRSIGNSLLYLGLSLASYLSSAMVSIVHSVTARGGQSWLTDDIDKSKLDCFYYFIAALSTLNFIFFFWCARRYRYRNYSNEQ
B2: AtGTR5: Arabidopsis GTR protein, SEQ ID NO: 10 (protein, listed as Arabidopsis thaliana)
chain: MVLEDRKDGSSLPGRSGSFSKSSPSELDVVDPYKRISSPGSILDAEKVEKKPGGWRAVSFILGNETLERLGSIGLLANFMVYLTKVFHLEQVDAANVINIWSGFTNLTPLVGAYISDTYVGRFKTIAFASFATLLGLITITLTASFPQLHPASCNSQDPLSCGGPNKLQIGVLLLGLCFLSVGSGGIRPCSIPFGVDQFDQRTEEGVKGVASFFNWYYMTFTVVLIITQTVVVYIQDQVSWIIGFSIPTGLMALAVVMFFAGMKRYVYVKPEGSIFSGIAQVIVAARKKRKLKLPAEDDGTVTYYDPAIKSSVLSKLHRSNQFRCLDKAAVVIEGDLTPEGPPADKWRLCSVQEVEEVKCLIRIVPIWSAGIISLAAMTTQGTFTVSQALKMDRNLGPKFEIPAGSLSVISLLTIGIFLPFYDRVFVPFMRRITGHKSGITLLQRIGTGIVFAIFSMIVAGIVERMRRIRSINAGDPTGMTPMSVFWLSPQLILMGLCEAFNIIGQIEFFNSQFPEHMRSIANSLFSLSFAGSSYLSSFLVTVVHKFSGGHDRPDWLNKNLNAGKLDYFYYLIAVLGVVNLVYFWYCARGYRYKVGLPIEDFEEDKSSDDVEMTSKKSMK

Legend:
Type in all cases: cell-based
AtGTR2 = target: T1, AtGTR2 (Arabidopsis thaliana, UniProt Q9LV10); assay: Uptake of C14-labeled pOHBG in AtGTR2 expressing oocytes in presence of excess competitor; settings: 50× excess unlabeled competitor, AtGTR2, pH 5
T1 construct: expressed in transfected cells; host or cells: Xenopus oocytes injected with in vitro transcribed cRNA (vector pNB1u)
T1 sequence (Q9LV10 1-616): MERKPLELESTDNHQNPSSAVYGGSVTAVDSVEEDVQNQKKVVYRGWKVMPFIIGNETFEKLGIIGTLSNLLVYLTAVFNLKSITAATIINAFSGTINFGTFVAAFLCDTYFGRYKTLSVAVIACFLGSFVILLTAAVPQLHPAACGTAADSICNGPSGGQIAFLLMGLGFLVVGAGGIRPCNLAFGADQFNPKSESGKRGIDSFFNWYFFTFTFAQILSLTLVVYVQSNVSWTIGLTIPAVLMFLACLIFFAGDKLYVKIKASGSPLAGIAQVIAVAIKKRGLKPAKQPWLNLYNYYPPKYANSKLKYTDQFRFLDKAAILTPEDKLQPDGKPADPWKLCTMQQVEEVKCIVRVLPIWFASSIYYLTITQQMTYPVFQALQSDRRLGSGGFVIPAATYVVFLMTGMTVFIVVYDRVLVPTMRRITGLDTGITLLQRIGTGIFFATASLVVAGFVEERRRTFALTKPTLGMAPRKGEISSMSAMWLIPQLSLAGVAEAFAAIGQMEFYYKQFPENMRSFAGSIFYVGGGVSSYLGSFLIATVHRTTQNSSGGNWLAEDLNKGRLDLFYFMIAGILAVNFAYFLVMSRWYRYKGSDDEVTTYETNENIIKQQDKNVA
Protocol: (§1) FIG. 3: Biochemical analysis of AtGTR1 and 2 mediated GSL transport in Xenopus oocytes. A and B, pH dependence of AtGTR-mediated GSL transport. A, AtGTR2 mediated 4-MTB uptake measured by LC-MS analysis of oocyte extracts, n=3 oocytes. B, AtGTR1 currents induced by 1 mM 4-MTB were measured at different membrane potentials at pH 5 ([…]), pH 6 (♦), and pH 7 (▴). Currents were normalized to the current induced at pH 5 at −60 mV, error bars are SD, n=4 oocytes. C and D, kinetic analysis of AtGTR-mediated glucosinolate transport. […]
(§2) The substrate specificity investigations were extended to include substrates previously identified for the NRT/PTR transporter family namely di- and tripeptides and nitrate. […] However, perfusing with 1 mM NO3^− did result in currents but these amounted only to 1/10th of currents measured when perfusing with 100 μM 4-MTB (FIG. 3F). […]
(§3) For assays with radiolabeled substrates, single oocytes were ruptured in 100 μl 10% SDS in 4 ml scintillation vials by shaking for 20-30 minutes. 2.5 ml EcoScint™ scintillation fluid (National Diagnostics) was added, and imported compounds quantified by scintillation counting. For assays with unlabeled substrates, oocyte extracts were analysed by LC-MS. Oocytes were analyzed in batches of 5 oocytes per repetition. […]

AtGTR1 [1] = target: T2, AtGTR1 (Arabidopsis thaliana, UniProt Q944G5); assay: Substrate-induced currents in voltage-clamped Xenopus oocytes expressing AtGTR1; settings: 1 mM NO3−, AtGTR1
T2 construct: A library of Arabidopsis transporters available as full length cDNAs from the RIKEN bioresource center; expressed in transfected cells; host or cells: Xenopus oocytes injected with in vitro transcribed cRNA
T2 sequence (Q944G5 31-636 limits assumed): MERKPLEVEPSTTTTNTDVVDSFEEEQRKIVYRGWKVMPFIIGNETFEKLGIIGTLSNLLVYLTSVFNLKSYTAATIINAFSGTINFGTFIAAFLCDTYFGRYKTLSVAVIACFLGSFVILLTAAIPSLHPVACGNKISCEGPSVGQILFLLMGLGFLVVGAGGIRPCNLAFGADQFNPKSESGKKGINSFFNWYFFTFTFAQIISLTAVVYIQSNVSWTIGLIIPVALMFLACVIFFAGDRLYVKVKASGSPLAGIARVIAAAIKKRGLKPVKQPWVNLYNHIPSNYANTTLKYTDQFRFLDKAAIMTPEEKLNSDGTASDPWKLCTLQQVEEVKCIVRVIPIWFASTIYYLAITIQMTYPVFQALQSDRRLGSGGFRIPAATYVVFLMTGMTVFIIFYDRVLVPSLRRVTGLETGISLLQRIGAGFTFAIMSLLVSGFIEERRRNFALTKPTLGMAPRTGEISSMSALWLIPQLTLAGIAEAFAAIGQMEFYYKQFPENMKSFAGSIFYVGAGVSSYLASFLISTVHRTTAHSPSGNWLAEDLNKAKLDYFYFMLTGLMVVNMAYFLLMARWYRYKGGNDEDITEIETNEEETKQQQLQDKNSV

AtGTR1 [2] = target: T2, AtGTR1; assay: Uptake of C14-labeled pOHBG in AtGTR1 expressing oocytes in presence of excess competitor; settings: 50× excess unlabeled competitor, AtGTR1, pH 5
Protocol: as §1, §2, §3

Xenopus oocytes = assay: 4-MTB uptake in Xenopus oocytes expressing Arabidopsis GTR and other NRT/PTR proteins (LC-MS); settings: pH 5, 1 mM 4-MTB

| Molecule | effect on uptake of 40 μM C14-labeled pOHBG (AtGTR2) | currents as fraction of currents with 100 μM 4-MTB (AtGTR1 [1]) | effect on uptake of 40 μM C14-labeled pOHBG (AtGTR1 [2]) | 4-MTB uptake activity compared to AtGTR1 (Xenopus oocytes) [%] |
| --- | --- | --- | --- | --- |
| O=[N+]([O-])O [NO3^−, nitrate] | did not have significant inhibitory effects | 1/10 | did not have significant inhibitory effects |  |
| B1 |  |  |  | 10 |
| B2 |  |  |  | 10 |
